Measured values published in US9700058B2, “Dispersion and detachment of cell aggregates” (priority 2011, dated 2017).
Positions of bridges follow the written chain, without caps; N, C: chain ends. No end group written: not given here.

Key:
Format in all cases: cell-based
[1] = test system: Staphylococcus aureus (ATCC25923); test: Biofilm prevention, crystal violet, 96-well plate; details: peptide 100 ng/ml, added simultaneously, 24 h, 37° C.
Experimental: (§1) The peptides depicted in Table 1 (each with a cysteine attached to the N- and C-terminus of the peptides) were synthesized using solid-phase methods and were purified to 90% (Peptron, Inc.; Taejeon, South Korea). The peptides were dissolved in 20 μl dimethyl sulfoxide and diluted in double distilled water to a concentration of 10 mg/ml. Additional dilutions were performed in phosphate buffered saline (PBS).
(§2) The ability of these peptides to prevent microbial adhesion to a surface or detach microbial adhesion from a surface were measured against the following microbial strains: Pseudomonas aeruginosa (ATCC27853), Staphylococcus aureus (ATCC25923), Candida albicans (ATCC14053) and Acinetobacter baumannii (clinical isolate). Specifically, peptides diluted to concentrations of 100 ng/ml were incubated with the foregoing microbes for 24 hours.
(§3) Biofilms of the foregoing microorganisms were grown in a 96-well found-bottom polystyrene plate. Specifically, 180 μl of overnight cultures were added to the wells with 20 μl of each peptide diluted in PBS, either simultaneously to measure prevention or after a period of time to measure detachment from 4 hours up to 24 hours post incubation. After 24 hours of incubation at 37° C., each well was washed with water and stained with 250 μl of crystal violet solution. The crystal violet solution was then removed by thoroughly washing the wells with water. To quantify the number of bacteria cells attached to the wells, the crystal violet was solubilized in 250 μl of 1% sodium dodecyl sulfate and the absorbance was measured at 595 nm.
(§4) The ability of these peptides to (1) prevent microbial adhesion to a surface and to (2) detach microbes already adhered to a surface were measured against the following microbial strains: Pseudomonas aeruginosa (ATCC27853), Staphylococcus aureus (ATCC25923), Candida albicans (ATCC14053) and/or Escherichia coli. The resulting percentage of prevention or detachment, relative to control wells in which the microbes was allowed to culture in the absence of peptides, are indicated in FIGS. 13 to 16.

[2] = test system: Staphylococcus aureus (ATCC25923); test: Biofilm detachment, crystal violet, 96-well plate; details: peptide 100 ng/ml, added after adhesion
Experimental: as §1, §2, §3, §4

[3] = test system: Pseudomonas aeruginosa (ATCC27853); test: Biofilm detachment, crystal violet, 96-well plate; details: peptide 100 ng/ml, added after adhesion
Experimental: as §1, §2, §3, §4

[4] = test system: Candida albicans (ATCC14053); test: Biofilm detachment, crystal violet, 96-well plate; details: peptide 100 ng/ml, added after adhesion
Experimental: as §1, §2, §3, §4

[5] = test system: Acinetobacter baumannii (clinical isolate); test: Biofilm prevention, crystal violet, 96-well plate; details: added simultaneously, 24 h, 37° C.
Experimental: as §1
as §2, with “Specifically, peptides diluted to concentrations of 100 ng/ml were incubated with the foregoing microbes for 24 hours.” left out
as §3

[6] = test system: Pseudomonas aeruginosa (ATCC27853); test: Biofilm prevention, crystal violet, 96-well plate; details: added simultaneously, 24 h, 37° C.
Experimental: as §1
as §2, with “Specifically, peptides diluted to concentrations of 100 ng/ml were incubated with the foregoing microbes for 24 hours.” left out
as §3, §4

[7] = test system: Candida albicans (ATCC14053); test: Biofilm prevention, crystal violet, 96-well plate; details: added simultaneously, 24 h, 37° C.
Experimental: as §1
as §2, with “Specifically, peptides diluted to concentrations of 100 ng/ml were incubated with the foregoing microbes for 24 hours.” left out
as §3, §4

[8] = test system: Acinetobacter baumannii (clinical isolate); test: Biofilm detachment, crystal violet, 96-well plate; details: peptide 100 ng/ml, added after adhesion
Experimental: as §1, §2, §3

[9] = test system: Pseudomonas aeruginosa (ATCC 27853); test: Detachment of pre-formed biofilm from a well (Examples 1-7); details: different concentrations
Experimental: A biofilm was created by incubating Pseudomonas aeruginosa (ATCC 27853) overnight in wells at 37° C., allowing the microorganism to attach to the well surface. Eqt2Z-cyc peptide [Custom Peptide Synthesis; Peptron, Korea] at different concentrations was subsequently added to the wells and allowed to incubate overnight. The P.a. control was Pseudomonas aeruginosa alone.
(§5) A biofilm was created by culturing Pseudomonas aeruginosa (ATCC 27853) for 2 hours in a well at 37° C. Eqt2Z-cyc peptide at different concentrations was subsequently added to the well and allowed to incubate overnight. The Abac10-cyc peptide served as a negative control. The P.a. control was Pseudomonas aeruginosa alone.
as §5, with “for 24 hours.” for “overnight.”, “alone. […] Staining was performed with crystal violet at OD 595 nm.” for “alone.”
A biofilm was created by culturing Pseudomonas aeruginosa (ATCC 27853) for 2 hours in a well at 37° C. grZ14s-nvCyc peptide [Custom Peptide Synthesis; Peptron, Korea] at different concentrations was subsequently added to the well and allowed to incubate for 24 hours. The Abac10-cyc peptide served as a negative control. The P.a. control was Pseudomonas aeruginosa alone. […] Staining was performed with crystal violet at OD 595 nm.
(§6) A biofilm was created by culturing Pseudomonas aeruginosa (ATCC 27853) for 24 hours in a well at 37° C. Eqt2Z-cyc peptide at different concentrations was subsequently added to the well and allowed to incubate for 24 hours. The Abac10-cyc peptide served as a negative control. The P.a. control was Pseudomonas aeruginosa alone. […] Staining was performed with crystal violet at OD 595 nm.
as §6, with “grZ14s-nvCyc” for “Eqt2Z-cyc”
A biofilm was created by culturing Pseudomonas aeruginosa (ATCC 27853) for 24 hours in a well at 37° C. PhyscoZ-Cyc peptide [Custom Peptide Synthesis; Peptron, Korea] at different concentrations was subsequently added to the well and allowed to incubate for 24 hours. The P.a. control was Pseudomonas aeruginosa alone. […] Staining was performed with crystal violet at OD 595 nm.

[10] = 24-hour biofilm, 24-hour peptide incubation, crystal violet OD 595 nm

| Sequence | Biofilm prevention (%) [1] [%] | Detachment (%) (100 ng/ml) [2] | Detachment (%) (100 ng/ml) [3] | Detachment (%) (100 ng/ml) [4] | Biofilm prevention (%) ([5]; peptide 100 ng/ml) | Biofilm prevention (%) ([6]; peptide 100 ng/ml) | Biofilm prevention (%) ([7]; peptide 100 ng/ml) | Biofilm prevention (%) ([6]; peptide 10 ng/ml) | Detachment (%) (100 ng/ml) [8] | Biofilm prevention (%) ([7]; peptide 10 ng/ml) | microorganism detachment ([9]; 2-hour biofilm, 24-hour peptide incubation, crystal violet OD 595 nm) | microorganism detachment ([9]; 2-hour biofilm, overnight peptide incubation) | microorganism detachment [9, 10] | microorganism detachment ([9]; overnight biofilm, overnight peptide incubation) | Biofilm prevention (%) ([5]; peptide 10 ng/ml) |
| --- | --- | --- | --- | --- | --- | --- | --- | --- | --- | --- | --- | --- | --- | --- | --- |
| CKVNSFDYDWYNVC (disulfide 1-14 (inferred)) [MeleagZ-cyc] | 73 | 80 | 65 | 62 | 95 | 82 | 30 | – | – | – | – | – | – | – | – |
| CTVHSFDYDWYNVC (disulfide 1-14 (inferred)) [CapraZ-cyc] | 42 | 55 | 65 | 60 | 90 | 68 | 25 | – | – | – | – | – | – | – | – |
| CRVESFDFDWYNIC (disulfide 1-14 (inferred)) [SalmoZ-cyc] | 80 | 75 | 80 | 73 | 95 | – | 55 | 90 | – | – | – | – | – | – | – |
| CRVESFNYDWYNVC (disulfide 1-14 (inferred)) [NilotiZ-cyc] | 63 | 65 | 40 | 65 | 87 | 90 | 30 | – | – | – | – | – | – | – | – |
| CSELSSFNFDWYNVC (disulfide 1-15 (inferred)) [CionaZ-S-cyc] | 90 | – | 78 | 42 | 52 | 75 | 68 | – | 80 | – | – | – | – | – | – |
| CSRYSSFDYDWYNVC (disulfide 1-15 (inferred)) [XenoZ-S-cyc] | 65 | – | 30 | 50 | 95 | – | 75 | 57 | 49 | – | – | – | – | – | – |
| CSAPYNFNFYSNWC (disulfide 1-14 (inferred)) [EchoZ-cyc] | 85 | 35 | 65 | – | 80 | 90 | – | – | 60 | 80 | – | – | – | – | – |
| CSVPYDYNWYSNWC (disulfide 1-14 (inferred)) [Eqt2Z-cyc] | – | – | – | – | – | – | – | – | – | – | far greater microorganism detachment than in the P.a. control or negative control | far greater microorganism detachment than in the P.a. control or negative control | far greater microorganism detachment than in the P.a. control or negative control | far greater microorganism detachment than in the P.a. control | – |
| CSVPFDYNLYSNWC [PhyscoZ-cyc] (also: cyclised) | 65 | 70 | 75 | – | – | 95 | – | – | 50 | 62 | – | – | far greater microorganism detachment than in the P.a. control | – | – |
| CNVHSFDYDWYNVC (disulfide 1-14 (inferred)) [CanisZ-cyc] | 75 | – | 72 | 45 | – | 95 | 80 | – | 73 | – | – | – | – | – | 60 |
| CTVNSFDYDWYNVC (disulfide 1-14 (inferred)) [AnoliZ-cyc] | 75 | 72 | 90 | 72 | – | 95 | 55 | – | – | – | – | – | – | – | 92 |
| CRINSFDYDWYNVC (disulfide 1-14 (inferred)) [TetraoZ-cyc] | 52 | 43 | – | 55 | – | 45 | 25 | – | – | – | – | – | – | – | 70 |
| CSVPFDYNLYSNWC [SelagZ-cyc] (disulfide 1-14 (inferred)) | 88 | 35 | 67 | – | 80 | 88 | – | – | 50 | 80 | – | – | – | – | – |
